The experiment deals with Plasmodium berghei. Briefly: Luciferase/luciferin-expressing antifolate-resistant parasites were used to infect a culture of HepG2 cells that were pre-incubated with compounds. Infected hepatocytes emit light due to the luciferase reaction. Assay results are presented as the percent inhibition of light emission compared to control. […]. The class given is functional. Particulars: sporozoite; for IC90: read-out: LUCIFERASE INFECTION ASSAY - IC90.

The mark [1] stands for this setting: read-out: LUCIFERASE INFECTION ASSAY - IC50.

Broadly, the IC50 is the concentration that gives 50% inhibition. The IC90 is the point of the concentration-response curve where the effect stands at 90%. On to `CCCCCC(=O)Nc1ccc(C2=Nn3c(Cc4cccc5ccccc45)nnc3SC2)cc1`, for which the IC90 is above 10 µM. Further, under “HEPG2TOX_HILL_SLOPE 0.272, HEPG2TOX_R_SQUARED 0.219, PBLUC_HILL_SLOPE 1.92, PBLUC_R_SQUARED 0.644, read-out: LUCIFERASE INFECTION ASSAY - IC50”, the IC50 was 7.04 µM.
As for `O=C(Nc1ccc(Oc2ccc([N+](=O)[O-])c3cnccc23)cc1)c1ccccc1`, the IC90 was above 10 µM. Besides, for the setting “FFLUC_HILL_SLOPE 3.45, FFLUC_R_SQUARED 0.514, PBLUC_HILL_SLOPE 3.38, PBLUC_R_SQUARED 0.0773, read-out: LUCIFERASE INFECTION ASSAY - IC50”, the IC50 came out at 7.36 µM.
Take `CC(C)(C)c1ccc(CC(=O)N2CCC2(C)C(=O)Nc2cnc3ccccc3c2)cc1` (configuration not stated): the IC90 amounted to 3.72 µM. Besides, where the note is “HEPG2TOX_HILL_SLOPE 0.158, HEPG2TOX_R_SQUARED 0.645, PBLUC_HILL_SLOPE 10.5, PBLUC_R_SQUARED 0.686, read-out: LUCIFERASE INFECTION ASSAY - IC50”, the IC50 stood at 3.02 µM.
Take `O=C(O)c1cccc2cccc([S+]([O-])c3ccccc3CO)c12` (configuration not stated): the IC90 is above 10.1 µM. Moreover, the IC50 (FFLUC_HILL_SLOPE 17.8, FFLUC_R_SQUARED 0.335, read-out: LUCIFERASE INFECTION ASSAY - IC50) was above 10.1 µM.
Regarding `Cc1sc2nc(CN3CCOCC3)nc(NCCOc3ccccc3)c2c1C`, the IC90 is above 10 µM. Further, the IC50 under setting [1] is above 10 µM.
`COc1ccc(-c2nn(-c3ccccc3)cc2/C=C/C(=O)OCc2ncc(Cl)n2C)cc1OC`: the IC90 is above 10 µM. In addition, under setting [1], the IC50 is above 10 µM.
Regarding `Clc1ccc(N/N=C/Cc2nnnn2-c2ccccc2)cc1`, the IC90 was above 10.6 µM. For the same compound, the IC50 (PBLUC_HILL_SLOPE 11.7, PBLUC_R_SQUARED 0.117, read-out: LUCIFERASE INFECTION ASSAY - IC50) was 10.1 µM.
With `O=C1C(=O)N(Cc2ccc(Cl)cc2)c2c1cccc2C(F)(F)F`, the IC90 was found to be 3.39 µM. Also, the IC50 (FFLUC_HILL_SLOPE 2.39, FFLUC_R_SQUARED 0.89, HEPG2TOX_HILL_SLOPE 3.88, HEPG2TOX_R_SQUARED 0.975, PBLUC_HILL_SLOPE 2.88, PBLUC_R_SQUARED 0.708, read-out: LUCIFERASE INFECTION ASSAY - IC50) was 1.58 µM.
For `O=C(Cn1cc(C(F)(F)F)ccc1=O)N/N=C/c1c2ccccc2cc2ccccc12`, the IC90 is above 10 µM. Under “PBLUC_HILL_SLOPE 2.42, PBLUC_R_SQUARED 0.423, read-out: LUCIFERASE INFECTION ASSAY - IC50”, the IC50 is 5.16 µM.
In the case of `CCN1CCC(N(C)c2ccc(S(=O)(=O)N3CCCCCC3)cc2[N+](=O)[O-])CC1`, the concentration for an effect of 90% (IC90) was above 10 µM. Further, under “PBLUC_HILL_SLOPE 3.35, PBLUC_R_SQUARED 0.446, read-out: LUCIFERASE INFECTION ASSAY - IC50”, the IC50 was found to be 6.31 µM.
With `CCn1c2ccccc2c2cc(Nc3cc(-c4cc(OC)c(OC)c(OC)c4)ncn3)ccc21`, the IC90 came out at 1.29 µM. Besides, the IC50 (HEPG2TOX_HILL_SLOPE 1.37, HEPG2TOX_R_SQUARED 0.859, PBLUC_HILL_SLOPE 1.98, PBLUC_R_SQUARED 0.713, read-out: LUCIFERASE INFECTION ASSAY - IC50) amounted to 0.426 µM.
`O=C(c1cc(C(=O)N2CCCC2)c2nc3scc(-c4ccccc4)c3c(=O)n2c1)c1cc(F)ccc1O`: the IC90 was above 10 µM. Under “FFLUC_HILL_SLOPE 12.4, FFLUC_R_SQUARED 0.51, HEPG2TOX_HILL_SLOPE 7.25, HEPG2TOX_R_SQUARED 0.253, PBLUC_HILL_SLOPE 65.5, PBLUC_R_SQUARED 0.659, read-out: LUCIFERASE INFECTION ASSAY - IC50”, the IC50 was 9.78 µM.
`COc1ccc(-c2cc3c(cn2)nc(NCc2cccc(C)c2)n3C)cc1`: the IC90 is above 10 µM. Besides, under “PBLUC_HILL_SLOPE 9.11, PBLUC_R_SQUARED 0.402, read-out: LUCIFERASE INFECTION ASSAY - IC50”, the IC50 was 9.46 µM.
Consider `Cc1cc(C)c(C)c(S(=O)(=O)N2CCN(CC(=O)c3c(N)n(Cc4ccccc4)c(=O)n(C)c3=O)CC2)c1C`, for which the IC90 is above 10 µM. The IC50 (FFLUC_HILL_SLOPE 17, FFLUC_R_SQUARED 0.51, read-out: LUCIFERASE INFECTION ASSAY - IC50) is above 10 µM.
With `CC(=O)Nc1sc2c(c1C(=O)OCC(=O)Nc1cc(S(=O)(=O)N3CCOCC3)ccc1Cl)CCCC2`, the IC90 was above 10 µM. Besides, the IC50 under setting [1] is above 10 µM.
As to `CC1=Nn2cc(-c3ccccc3)nc2SC1c1ccccc1` (configuration not stated), the IC90 was 1.79 µM. Besides, for the setting “FFLUC_HILL_SLOPE 0.814, FFLUC_R_SQUARED 0.91, PBLUC_HILL_SLOPE 0.719, PBLUC_R_SQUARED 0.79, read-out: LUCIFERASE INFECTION ASSAY - IC50”, the IC50 turned out to be 0.084 µM.
On to `COc1ccc(-c2nnc(SCC(=O)c3cc(F)ccc3OC)[nH]2)cc1`, for which the IC90 was above 10 µM. For the same compound, the IC50 (HEPG2TOX_HILL_SLOPE 0.475, HEPG2TOX_R_SQUARED 0.679, read-out: LUCIFERASE INFECTION ASSAY - IC50) was above 10 µM.
In the case of `CN(Cc1ccsc1)c1nc(C(F)(F)F)nc2ccccc12`, the IC90 is above 10 µM. In addition, under setting [1], the IC50 is above 10 µM.
As for `Cc1occc1C(=O)NNC(=O)c1csc(-c2ccc(C(C)C)cc2)n1`, the IC90 was above 10 µM. For the same compound, the IC50 (PBLUC_HILL_SLOPE 2.06, PBLUC_R_SQUARED 0.34, read-out: LUCIFERASE INFECTION ASSAY - IC50) amounted to 8.1 µM.
Turning to `O=C(COc1ccc2[nH]c3ccccc3c(=O)c2c1)Nc1ccccc1Cc1ccccc1`, the IC90 amounted to 0.11 µM. For the setting “PBLUC_HILL_SLOPE 1.04, PBLUC_R_SQUARED 0.893, read-out: LUCIFERASE INFECTION ASSAY - IC50”, the IC50 was determined as 0.0133 µM.
Take `O=[N+]([O-])c1ccc(C2Nc3ccc(F)cc3N2)s1` (configuration not stated): the IC90 amounted to 6.65 µM. Further, the IC50 (PBLUC_HILL_SLOPE 4.41, PBLUC_R_SQUARED 0.496, read-out: LUCIFERASE INFECTION ASSAY - IC50) was 4.04 µM.
Turning to `O=S(=O)(Nc1cc(C(F)(F)F)cc(C(F)(F)F)c1)c1cc(C(F)(F)F)cc(C(F)(F)F)c1`, the IC90 was 4.66 µM. Besides, the IC50 (FFLUC_HILL_SLOPE 10.6, FFLUC_R_SQUARED 0.544, PBLUC_HILL_SLOPE 1.62, PBLUC_R_SQUARED 0.523, read-out: LUCIFERASE INFECTION ASSAY - IC50) turned out to be 1.2 µM.
Turning to `CC1=C/C(=N\NC(=O)c2ccc(Br)cc2)CC(C)(C)C1`, the IC90 is above 10 µM. Also, the IC50 (PBLUC_HILL_SLOPE 2.58, PBLUC_R_SQUARED 0.715, read-out: LUCIFERASE INFECTION ASSAY - IC50) came to 6.68 µM.
Turning to `CC1CCc2c(sc3c2C(=O)NC(/C(Br)=C/c2ccccc2)N3)C1` (configuration not stated), the IC90 worked out at 3.94 µM. In addition, the half-inhibitory concentration (IC50) (FFLUC_HILL_SLOPE 0.906, FFLUC_R_SQUARED 0.617, HEPG2TOX_HILL_SLOPE 7.13, HEPG2TOX_R_SQUARED 0.573, PBLUC_HILL_SLOPE 13.5, PBLUC_R_SQUARED 0.659, read-out: LUCIFERASE INFECTION ASSAY - IC50) came to 3.35 µM.
For the compound `N#CCOc1cc(Cl)cc(Cl)c1`, the IC90 was above 16.3 µM. Besides, the 50% inhibitory concentration (IC50) (FFLUC_HILL_SLOPE 1.89, FFLUC_R_SQUARED 0.0257, read-out: LUCIFERASE INFECTION ASSAY - IC50) is above 16.3 µM.
Regarding `c1nc(NCC2(N3CCOCC3)CCCCC2)c2ccsc2n1`, the IC90 was above 10 µM. Further, the IC50 under setting [1] was above 10 µM.
On to `CN(C1CCCCC1)S(=O)(=O)c1ccc(NC(=S)NC(=O)c2ccco2)cc1`, for which the IC90 is above 10 µM. Where the note is “FFLUC_HILL_SLOPE 2.51, FFLUC_R_SQUARED 0.131, read-out: LUCIFERASE INFECTION ASSAY - IC50”, the IC50 was above 10 µM.
`COc1ccc(Nc2ccn3ncc(-c4ccc(OC)c(OC)c4)c3n2)cn1`: the IC90 is 1.73 µM. In addition, under “HEPG2TOX_HILL_SLOPE 1.44, HEPG2TOX_R_SQUARED 0.951, PBLUC_HILL_SLOPE 2.71, PBLUC_R_SQUARED 0.798, read-out: LUCIFERASE INFECTION ASSAY - IC50”, the IC50 turned out to be 0.768 µM.
For the compound `Cc1cc(C(=O)CSc2nnc3n2CCCCC3)c(C)n1Cc1ccc2c(c1)OCO2`, the IC90 is above 10 µM. The IC50 under setting [1] was above 10 µM.
Take `O=c1cc(CNC(CCCc2ccccc2)c2ccccc2)nc2ccc(Cl)cn12` (configuration not stated): the 90% effect concentration (IC90) was above 10 µM. The IC50 under setting [1] is above 10 µM.
Take `c1ccc(-c2csc3nc(CN4CCOCC4)nc(NCc4cnn(-c5ccccc5)c4)c23)cc1`: the IC90 was above 10 µM. In addition, the IC50 under setting [1] is above 10 µM.
As for `C=CCN(CC=C)C(CNc1ccc2nnc(C(F)(F)F)n2n1)C(C)C` (configuration not stated), the IC90 was above 10 µM. Where the note is “PBLUC_HILL_SLOPE 8.1, PBLUC_R_SQUARED 0.171, read-out: LUCIFERASE INFECTION ASSAY - IC50”, the IC50 turned out to be 8.34 µM.
For `NC(CCc1ccccc1)c1csc(Nc2ccc(C(=O)NCc3ccco3)cn2)n1` (configuration not stated), the IC90 came out at 7.53 µM. For the same compound, where the note is “HEPG2TOX_HILL_SLOPE 15.2, HEPG2TOX_R_SQUARED 0.624, PBLUC_HILL_SLOPE 17, PBLUC_R_SQUARED 0.625, read-out: LUCIFERASE INFECTION ASSAY - IC50”, the IC50 is 6.62 µM.
For the compound `O=C1NC(=S)S/C1=C\c1ccc(OCc2ccc(Cl)c(Cl)c2)cc1`, the IC90 is above 8.33 µM. For the same compound, under “HEPG2TOX_HILL_SLOPE 0.0732, HEPG2TOX_R_SQUARED 0.0803, read-out: LUCIFERASE INFECTION ASSAY - IC50”, the IC50 is above 8.33 µM.
Take `CCOC(=O)N1CCC(NC(=O)/C(=C/c2ccc(OC(F)F)cc2)c2ccccc2)CC1`: the IC90 turned out to be 9.96 µM. Further, the IC50 (PBLUC_HILL_SLOPE 9.1, PBLUC_R_SQUARED 0.0303, read-out: LUCIFERASE INFECTION ASSAY - IC50) was found to be 7.82 µM.
Turning to `CC(C(=O)Nc1ccc(O)cc1)c1ccc2c(c1)[nH]c1ccc(Cl)cc12` (configuration not stated), the IC90 is above 9.05 µM. In addition, the half-maximal inhibitory concentration (IC50) under setting [1] is above 9.05 µM.

The record behind these values is ChEMBL document CHEMBL4483862, “Open-source discovery of chemical leads for next-generation chemoprotective antimalarials” (2018).
